From paper PMC10927086, “Effects of structurally distinct human HDAC6 and HDAC6/HDAC8 inhibitors against S. mansoni larval and adult worm stages” (PLOS Neglected Tropical Diseases, 2024)

Test system: adult S. mansoni worm pairs (ovary, ootype, vitellarium, gut)
Assay: Carmine-red staining and confocal laser scanning microscopy of adult worm pairs
Format: cell-based, Schistosoma mansoni
Conditions: 72 h
Protocol: Carmine Red staining was performed as previously described. […] Images were collected as a single stack.
To characterize the phenotypic alterations induced by compound treatment in more detail, carmine-red staining, followed by confocal laser scanning microscopy (CLSM) analysis was performed (Fig 5). Sublethal doses of compounds were chosen to preserve the overall parasite viability and pairing. For each compound, 3–5 couples in two independent experiments were analyzed and images of ootype, ovary, vitellarium, testis, gut, and parenchyma were recorded. […] The vitellarium retains a preserved structure in all analyzed samples. […] Accumulation of carmine-red positive particle aggregates was also present in the lumen of the NF2839-treated male worms (Fig 5).
Fig 5 Confocal microscopy of carmine-red stained adult worm pairs treated with quinolone-based HDAC inhibitors. […] The ovary, ootype and gut are shown. Immature oocytes (io), mature oocytes (mo), ootype (ot) and gastrodermis (ga) are labeled. In the Figure, red filled triangles indicate degenerated mo; empty red triangles indicate egg fragments in the ootypes; asterisks indicate deformed egg in the ootype and carmine red aggregates in the gut lumen, filled red arrows indicate the ga in the gut. Scale bars: 50 μm.

SMILES: Cn1c(=O)c(OCc2ccc(C(=O)NO)cc2)c(C2CCCCC2)c2ccccc21 [NF2836]
- samples with decrease of cellularity in the ovary mature compartment (50 uM): 5/11
- ootype content (higher concentration (NF2836 50 μM, NF2839 10 μM)): either an empty ootype or no properly developed eggs and/or egg fragments
- gut morphology (higher concentration (NF2836 50 μM, NF2839 10 μM), all worms, in particular males): gut dilation with a dramatic decrease in the number of surface amplification and lumen epithelial thinning
- ootype containing damaged eggs (lower concentrations (NF2836 20 μM, NF2839 5 μM)): 5/7
- overall morphology of the ovary (sublethal doses): seemed not to be affected
